Data from article PMC11532403 (Signal Transduction and Targeted Therapy, 2024).
“And” between values parts separate entries of the source, which are not always exact repeats. Identical values can stand only once.

Tested on: RET-altered solid tumors
Assay: Phase 1 trial: anti-tumor efficacy (RECIST 1.1)
Type: in vivo, human
Conditions: for PFS Follow-up (m) / PFS: Type of event: individual patients; for Best overall response: Partial response / Best overall response: Progressive disease / Best overall response: Stable disease / DCR, % (95% CI) / Median DoR, months (95% CI) / Median PFS, months (95% CI) / Median TTR, months (95% CI) / ORR, % (95% CI): patients with detectable RET variations
Protocol: Radiologic tumor assessments were conducted by computed tomography (CT) or magnetic resonance imaging (MRI) of brain, chest, abdomen, and pelvis at baseline, 4 weeks for the first tumor assessment, then every 8 weeks (± 7 days) for 1 year, and every 12 weeks (± 7 days) thereafter. MTC patients were longitudinally monitored for serum calcitonin and carcinoembryonic antigen (CEA) levels.

[1] = RP2D, PTC, treatment-naïve (n = 1)
[2] = Treatment-naïve, 40 mg BID (n = 1)
[3] = Treatment-naïve, 160 mg BID (n = 37)
[4] = Treatment-naïve, 200 mg BID (n = 2)
[5] = Treatment-naïve, all doses (n = 40)
[6] = baseline ctDNA detectable RET alterations (n = 61)
[7] = baseline ctDNA undetectable RET alterations (n = 53)
[8] = ctDNA analysis, all patients (n = 114)

COc1ccc(CN2C3CC2CN(c2ccc(-c4cc(N5CC(C)(O)C5)cn5ncc(C#N)c45)cn2)C3)cn1 [SY-5007, 6-(3-hydroxy-3-methylazetidin-1-yl)-4-(6-(6-((6-methoxypyridin-3-yl)methyl)-3,6-diazabicyclo[3.1.1]heptan-3-yl)pyridin-3-yl)pyrazolo[1,5-a]pyridine-3-carbonitrile]
ORR (95% CI) [1]: 0 (0.0-97.5) %
Partial response [1]: 0 (0.0) n (%)
Progressive disease [1]: 0 (0.0) n (%)
Stable disease [1]: 1 (100.0) n (%)
Median PFS (95% CI) [2]: 1.67 (NE-NE) months
ORR (95% CI) [2]: 0 (0.0–97.5) %
Partial response [2]: 0 (0.0) n (%)
Progressive disease [2]: 0 (0.0) n (%)
Stable disease [2]: 1 (100.0) n (%)
DCR (95% CI) (Treatment-naïve, 40 mg BID (n = 1), 40 mg twice daily): 100.0 (2.5–100.0) %
DCR (95% CI) [3]: 94.6 (81.8–99.3) %
Median DoR (95% CI) [3]: 14.5 (9.26-NE) months
Median PFS (95% CI) [3]: 15.5 (9.23-NE) months
Median TTR (95% CI) [3]: 2.75 (0.98–2.89) months
ORR (95% CI) [3]: 70.3 (53.0–84.1) %
Partial response [3]: 26 (70.3) n (%)
Progressive disease [3]: 2 (5.4) n (%)
Stable disease [3]: 9 (24.3) n (%)
DCR (95% CI) [4]: 100.0 (15.8–100.0) %
Median DoR (95% CI) [4]: 5.32 (5.06-NE) months
Median PFS (95% CI) [4]: 6.22 (5.98-NE) months
Median TTR (95% CI) [4]: 0.93 (0.91-NE) months
ORR (95% CI) [4]: 100.0 (15.8–100.0) %
Partial response [4]: 2 (100.0) n (%)
Progressive disease [4]: 0 (0.0) n (%)
Stable disease [4]: 0 (0.0) n (%)
DCR (95% CI) [5]: 95.0 (83.1–99.4) %
Median DoR (95% CI) [5]: 14.5 (6.47–NE) months
Median PFS (95% CI) [5]: 15.5 (9.23–NE) months
Median TTR (95% CI) [5]: 2.75 (0.95–2.89) months
ORR (95% CI) [5]: 70.0 (53.5–83.4) %
Partial response [5]: 28 (70.0) n (%)
Progressive disease [5]: 2 (5.0) n (%)
Stable disease [5]: 10 (25.0) n (%)
Estimated 6-month PFS rate (all patients): 86.1%
Estimated 12-month PFS rate (all patients): 68.9%
Patients with progression events or death (all patients in phase 1): 29 (23.8%) n (%)
DCR (95% CI) [6]: 96.7 (88.7-99.6) %
Median DoR (95% CI) [6]: 13.0 (9.23-19.9) months
Median PFS (95% CI) [6]: 13.8 (10.0-15.5) months
Median TTR (95% CI) [6]: 2.79 (1.01-6.73) months
ORR (95% CI) [6]: 57.4 (44.1-70.0) %
Partial response [6]: 35 (57.4) n (%)
Progressive disease [6]: 2 (3.3) n (%)
Stable disease [6]: 24 (39.3) n (%)
DCR (95% CI) [7]: 94.3 (84.3-98.8) %
Median TTR (95% CI) [7]: 3.15 (2.75-6.30) months
ORR (95% CI) [7]: 60.4 (46.0-73.5) %
Partial response [7]: 32 (60.4) n (%)
Progressive disease [7]: 3 (5.7) n (%)
Stable disease [7]: 18 (34.0) n (%)
DCR (95% CI) [8]: 95.6 (90.1-98.6) %
Median DoR (95% CI) [8]: 19.9 (12.8-NE) months
Median PFS (95% CI) [8]: 21.1 (13.8-NE) months
Median TTR (95% CI) [8]: 2.79 (2.75-4.66) months
ORR (95% CI) [8]: 58.8 (49.2-67.9) %
Partial response [8]: 67 (58.8) n (%)
Progressive disease [8]: 5 (4.4) n (%)
Stable disease [8]: 42 (36.8) n (%)
ORR (ctDNA-detectable KIF5B-RET (27/46)): 58.7%
ORR (ctDNA-detectable RET mutations (3/9)): 33.3%
ORR (ctDNA-detectable other RET fusions (5/7)): 71.4%
Median PFS (detectable RET, concomitant TP53 mutation): 10.1 months
ORR (detectable RET, concomitant TP53 mutation (11/22)): 50.0%
Median PFS (detectable RET, without TP53 mutation): 15.4 months
ORR (detectable RET, without TP53 mutation (24/39)): 61.5%
ORR (dose-escalation phase (9/17)): 52.9%
DCR (dose-escalation phase (16/17)): 94.1%
ORR (dose-expansion phase (58/99)): 58.6%
DCR (dose-expansion phase (95/99)): 96.0%
1-year DoR rate (in vivo): 74.1%
PFS Follow-up (m) (GC, 160mg BID): 1.02 m
PFS: Type of event (GC, 160mg BID): Censoring
PFS Follow-up (m) (MTC, 160mg BID): 5.75 m and 0.99 m and 2.76 m and 2.66 m and 6.41 m and 4.60 m and 0.85 m and 0.92 m and 14.72 m and 6.44 m and 11.96 m and 6.51 m and 13.90 m and 8.41 m and 4.57 m and 8.51 m and 6.60 m and 2.86 m and 8.38 m
PFS: Type of event (MTC, 160mg BID): Censoring
PFS Follow-up (m) (NSCLC, 20mg BID): 27.14 m
PFS Follow-up (m) (NSCLC, 20mg QD): 4.83 m
PFS: Type of event (NSCLC, 20mg QD): Censoring
PFS Follow-up (m) (NSCLC, 40mg BID): 25.07 m and 10.29 m and 1.68 m
PFS: Type of event (NSCLC, 40mg BID): Censoring
PFS Follow-up (m) (NSCLC, 80mg BID): 23.30 m and 6.64 m and 23.23 m
PFS: Type of event (NSCLC, 80mg BID): Censoring
PFS Follow-up (m) (NSCLC, 120mg BID): 21.39 m and 21.42 m and 21.13 m
PFS: Type of event (NSCLC, 120mg BID): Censoring
PFS Follow-up (m) (NSCLC, 200mg BID): 11.99 m and 11.96 m and 5.98 m and 5.75 m and 17.74 m and 3.15 m and 6.47 m and 12.16 m and 0.89 m
PFS: Type of event (NSCLC, 200mg BID): Censoring
PFS Follow-up (m) (PTC, 160mg BID): 8.35 m and 2.79 m and 8.38 m and 8.48 m and 6.67 m and 2.89 m and 2.92 m
ORR (non-clearance or unknown RET alterations at Cycle 1 Day 28 (16/42)): 38.1%
Best overall response: Partial response (TP53 mutant, n=22): 11 (50.0)
Best overall response: Progressive disease (TP53 mutant, n=22): 0 (0.0)
Best overall response: Stable disease (TP53 mutant, n=22): 11 (50.0)
DCR, % (95% CI) (TP53 mutant, n=22): 100.0 (84.6-100.0) %
Median DoR, months (95% CI) (TP53 mutant, n=22): 13.0 (2.82-NE) months
Median PFS, months (95% CI) (TP53 mutant, n=22): 10.1 (6.21-NE) months
Median TTR, months (95% CI) (TP53 mutant, n=22): 2.89 (0.95-NE) months
ORR, % (95% CI) (TP53 mutant, n=22): 50.0 (28.2-71.8) %
Best overall response: Partial response (TP53 wild-type, n=39): 24 (61.5)
Best overall response: Progressive disease (TP53 wild-type, n=39): 2 (5.1)
Best overall response: Stable disease (TP53 wild-type, n=39): 13 (33.3)
DCR, % (95% CI) (TP53 wild-type, n=39): 94.9 (82.7-99.4) %
Median DoR, months (95% CI) (TP53 wild-type, n=39): 19.9 (6.47-NE) months
Median PFS, months (95% CI) (TP53 wild-type, n=39): 15.4 (9.23-NE) months
Median TTR, months (95% CI) (TP53 wild-type, n=39): 2.79 (0.98-6.73) months
ORR, % (95% CI) (TP53 wild-type, n=39): 61.5 (44.6-76.6) %
Best overall response: Partial response (all patients, n=61): 35 (57.4)
Best overall response: Progressive disease (all patients, n=61): 2 (3.3)
Best overall response: Stable disease (all patients, n=61): 24 (39.3)
DCR, % (95% CI) (all patients, n=61): 96.7 (88.7-99.6) %
Median DoR, months (95% CI) (all patients, n=61): 13.0 (9.23-19.9) months
Median PFS, months (95% CI) (all patients, n=61): 13.8 (10.0-15.5) months
Median TTR, months (95% CI) (all patients, n=61): 2.79 (1.01-6.73) months
ORR, % (95% CI) (all patients, n=61): 57.4 (44.1-70.0) %
ORR (patients with rapid ctDNA clearance of RET alteration): 100%
Median TTR (patients with rapid ctDNA decline/clearance of RET alteration): 0.91 months
